Data reported in patent publication EP4566600A1, “AFFECTIVE DISORDER AMELIORATING AGENT” (National University Corporation Kobe University, priority 2022, dated 2024).

How the values were obtained:
GFP-PKCγ = molecular target: T1, GFP-PKCγ (Homo sapiens, UniProt P05129); experiment: PKCγ activity inhibitory action in TPA-treated COS7 cells expressing GFP-PKCγ (Western blotting for PKCγ and phosphorylated PKCγ); format: cell-based; details: treated with TPA and flavonoid, n=2 (Fig. 5)
T1 construct: expressed in transfected cells; host or cells: COS7 cells, electroporation, 48 h
Procedure: The PKCγ activity inhibitory action of various flavonoids was tested. Scutellarin (Scu), baicalin (Bai), luteolin (Lut), and apigenin (Api) were used as various flavonoids. A plasmid encoding GFP-PKCγ was introduced into COS7 cells by electroporation and cultured for 48 hours to express GFP-PKCγ. After treating the cells with TPA (12-O-Tetradecanoylphorbol-13-acetate, activator of PKCγ) and each flavonoid, the cells were ground and proteins were subjected to SDS-PAGE. Thereafter, Western blotting was performed for PKCγ and phosphorylated PKCγ (activated form).

[1] = tested on: affective disorder model mice (DGKβKO mice); experiment: elevated plus maze test (affective disorder evaluation system 1); format: in vivo; details: relative to that in the case of taking placebo; male affective disorder model mice aged 8-11 weeks, drinking water containing 600 mg/L of lithium for 10 consecutive days
Procedure: Mice in which DGKβ was knocked out (DGKβKO mice) were prepared as an affective disorder (mania) model. This model mice are not associated with dementia.
An elevated plus maze test was used. In an elevated plus maze, a passage with a wall (closed arm) and a passage without a wall (open arm) crossed each other in a cross shape, and normal mice (WT) were afraid of the open arm and stayed in the closed arm for a long time, while affective disorder model mice were less likely to feel anxiety and stayed in the open arm for a long time. Based on this, the ratio of the residence time in the open arm in the test time was used as an index of anxiety.
Male affective disorder model mice aged 8-11 weeks were allowed to freely drink water containing 600 mg/L of lithium for 10 consecutive days.
The affective disorder model mice orally administered with lithium were subjected to affective disorder evaluation system 1 (elevated plus maze test) to evaluate amelioration of affective disorder (mania).

Structure (SMILES)	PKCγ activity inhibitory action (GFP-PKCγ)	ratio of the residence time in the open arm [1]
O=c1cc(-c2ccc(O)cc2)oc2cc(O)cc(O)c12 [apigenin]	observed	
O=C(O)[C@H]1O[C@@H](Oc2cc3oc(-c4ccccc4)cc(=O)c3c(O)c2O)[C@H](O)[C@@H](O)[C@@H]1O [baicalin]	observed	
[Li] [lithium]		about 30%
O=c1cc(-c2ccc(O)c(O)c2)oc2cc(O)cc(O)c12 [luteolin]	observed	
